Test results reported in US20100204265A1 (priority 2009, published 2010).

What follows are molecules tested on ET (Huh-lucubineo-ET) cell line harboring I389luc-ubi-neo/NS3-3′/ET HCV replicon (assay: Replicon assay (HCV replicon, luciferase readout)). Details: Hepatitis C virus.
Format: cell-based
Method: A cell line, ET (Huh-lucubineo-ET) is used for screening of compounds for inhibiting HCV RNA dependent RNA polymerase. The ET cell line is stably transfected with RNA transcripts harboring a I389luc-ubi-neo/NS3-3′/ET; replicon with firefly luciferase-ubiquitin-neomycin phosphotransferase fusion protein and EMCV-IRES driven NS3-5B polyprotein containing the cell culture adaptive mutations (E1202G; T1280I; K1846T) (Krieger at al, 2001 and unpublished). The ET cells are grown in DMEM (Dulbeco's Modified Eagle's Medium), supplemented with 10% fetal calf serum, 2 mM Glutamine, Penicillin (100 IU/mL)/Streptomycin (100 μg/mL), 1× nonessential amino acids, and 250 μg/mL G418 (“Geneticin”). They are all available through Life Technologies (Bethesda, Md.). The cells are plated at 0.5−1.0×10^4 cells/well in the 96 well plates and incubated for 24 hrs before adding test compound. The compounds are added to the cells to achieve a final concentration of 0.1 nM to […] and a final DMSO (dimethylsulfoxide) concentration of 0.5%. Luciferase activity is measured 48-72 hours later by adding a lysis buffer and the substrate (Catalog number Glo-lysis buffer E2661 and Bright-Glo luciferase system E2620 Promega, Madison, Wis.). Cells should not be too confluent during the assay. Percent inhibition of replication data is plotted relative to no compound control. Under the same condition, cytotoxicity of the compounds are determined using cell proliferation reagent, WST-1 (Roche, Germany). The compounds showing antiviral activities, but no significant cytotoxicities are chosen to determine EC50 and TC50. For these determinations, a 10 point, 2-fold serial dilution for each compound was used, which spans a concentration range of 1000 fold. EC50 and similarly TC50 values were calculated by fitting % inhibition at each concentration to the following equation:
% inhibition=100%/[(EC50/[I])^b+1]
where b is Hill's coefficient.

Compared with `COC(=O)C(Cc1ccccc1)NC(=O)Cc1cn2cc(-c3ccoc3)cc(C(F)(F)F)c2n1` (centres unmarked) [Compound 312, 2-[2-(6-Furan-3-yl-8-trifluoromethyl-imidazo[1,2-a]pyridin-2-yl)-acetylamino]-3-phenyl-propionic acid methyl ester], `O=C(Cc1cn2cc(-c3ccoc3)cc(C(F)(F)F)c2n1)NCc1ccccc1` [Compound 185, N-Benzyl-2-(6-furan-3-yl-8-trifluoromethyl-imidazo[1,2-a]pyridin-2-yl)-acetamide] is lower in EC50: > 50 µM for the first, 4.8 µM for the second.

Compared with `O=C(c1nc2c(C(F)(F)F)cc(-c3nccs3)cn2c1Cl)N1CC=C(c2ncccc2F)CC1` [Compound 118, (3 -Chloro-6-thiazol-2-yl-8-trifluoromethyl-imidazo[1,2-a]pyridin-2-yl)-(3-fluoro-3′,6′-dihydro-2′H-[2,4′]bipyridinyl-1′-yl)-methanone], `O=C(c1nc2c(C(F)(F)F)cc(-c3ccoc3)cn2c1CO)N1CC=C(c2ncccc2F)CC1` [Compound 171, (3-Fluoro-3′,6′-dihydro-2′H-[2,4′]bipyridinyl-1′-yl)-(6-furan-3-yl-3-hydroxymethyl-8-trifluoromethyl-imidazo[1,2-a]pyridin-2-yl)-methanone] is 2.2-fold higher in EC50: 0.655 µM for the first, 1.41 µM for the second. The first is the more potent here.

First: COC(=O)[C@H](CCCCNC(=O)OC(C)(C)C)NC(=O)Cc1cn2cc(-c3ccoc3)cc(C(F)(F)F)c2n1 (stereo in doubt) [Compound 153, 6-tert-Butoxycarbonylamino-2-[2-(6-furan-3-yl-8-trifluoromethyl-imidazo[1,2-a]pyridin-2-yl)-acetylamino]-hexanoic acid methyl ester]
Second: CC(C)(C)OC(=O)NCCc1cn2cc(-c3ccoc3)cc(C(F)(F)F)c2n1 [Compound 242, [2-(6-Furan-3-yl-8-trifluoromethyl-imidazo[1,2-a]pyridin-2-yl)-ethyl]-carbamic acid tert-butyl ester]
The EC50 of the first is lower: 13.9 µM for the first, > 50 µM for the second.

First: CCOC1CCN(C(=O)c2nc3c(C(F)(F)F)cc(-c4cn[nH]c4)cn3c2Cl)CC1 [Compound 177, [3-Chloro-6-(1H-pyrazol-4-yl)-8-trifluoromethyl-imidazo[1,2-a]pyridin-2-yl]-(4-ethoxy-piperidin-1-yl)-methanone]
Second: CCOC1CCN(C(=O)c2nc3c(C(F)(F)F)cc(-c4cn[nH]c4)cn3c2Cl)C1 (centres unmarked) [Compound 181, [3-Chloro-6-(1H-pyrazol-4-yl)-8-trifluoromethyl-imidazo[1,2-a]pyridin-2-yl]-(3-ethoxy-pyrrolidin-1-yl)-methanone]
The EC50 of the first is 12-fold lower: 1.08 µM for the first, 13.5 µM for the second. The first is the more potent here.

Compared with `O=C1CCCC2(CCN(C(=O)c3nc4c(C(F)(F)F)cc(-c5ccoc5)cn4c3Cl)CC2)N1` [Compound 324, 9-(3-Chloro-6-furan-3-yl-8-trifluoromethyl-imidazo[1,2-a]pyridine-2-carbonyl)-1,9-diaza-spiro[5.5]undecan-2-one], `O=C(c1nc2c(C(F)(F)F)cc(-c3ccoc3)cn2c1Cl)N1CCC(O)(c2nccs2)CC1` [Compound 224, (3-Chloro-6-furan-3-yl-8-trifluoromethyl-imidazo[1,2-a]pyridin-2-yl)-(4-hydroxy-4-thiazol-2-yl-piperidin-1-yl)-methanone] is lower in EC50: > 50 µM for the first, 3.5 µM for the second. The second is the more potent here.

First: COc1cccc(NC2CCN(C(=O)c3nc4c(C(F)(F)F)cc(-c5ccoc5)cn4c3Cl)C2)c1 (centres unmarked) [Compound 178, (3-Chloro-6-furan-3-yl-8-trifluoromethyl-imidazo[1,2-a]pyridin-2-yl)-[3-(3-methoxy-phenylamino)-pyrrolidin-1-yl]-methanone]
Second: O=C(c1nc2c(C(F)(F)F)cc(-c3ccoc3)cn2c1Cl)N1CCC(c2ncccc2F)CC1 [Compound 219, (3-Chloro-6-furan-3-yl-8-trifluoromethyl-imidazo[1,2-a]pyridin-2-yl)-(3-fluoro-3′,4′,5′,6′-tetrahydro-2′H-[2,4′]bipyridinyl-1′-yl)-methanone]
The EC50 of the first is 37-fold higher: 2.41 µM for the first, 0.0651 µM for the second.

`CN(C)C(=O)CNC(=O)Cc1cn2cc(-c3ccoc3)cc(C(F)(F)F)c2n1` [Compound 302, N-Dimethylcarbamoylmethyl-2-(6-furan-3-yl-8-trifluoromethyl-imidazo[1,2-a]pyridin-2-yl)-acetamide] and `COC(=O)C(NC(=O)Cc1cn2cc(-c3ccoc3)cc(C(F)(F)F)c2n1)C(C)C` (centres unmarked) [Compound 310, 2-[2-(6-Furan-3-yl-8-trifluoromethyl-imidazo[1,2-a]pyridin-2-yl)-acetylamino]-3-methyl-butyric acid methyl ester] cannot be ordered by EC50: > 50 µM for the first, > 50 µM for the second.

Compared with `O=C(Cc1cccs1)NCCc1cn2cc(-c3ccoc3)cc(C(F)(F)F)c2n1` [Compound 274, N-[2-(6-Furan-3-yl-8-trifluoromethyl-imidazo[1,2-a]pyridin-2-yl)-ethyl]-2-thiophen-2-yl-acetamide], `O=C(NCc1cn2cc(-c3ccoc3)cc(C(F)(F)F)c2n1)c1ccccc1` [Compound 130, N-(6-Furan-3-yl-8-trifluoromethyl-imidazo[1,2-a]pyridin-2-ylmethyl)-benzamide] is lower in EC50: > 50 µM for the first, 49.8 µM for the second. The second is the more potent here.

`N#CC1(c2ncccc2F)CCN(C(=O)c2nc3c(C(F)(F)F)cc(-c4ccoc4)cn3c2Cl)CC1` [Compound 220, 1′-(3-Chloro-6-furan-3-yl-8-trifluoromethyl-imidazo[1,2-a]pyridine-2-carbonyl)-3-fluoro-2′,3′,5′,6′-tetrahydro-1′H-[2,4′]bipyridinyl-4′-carbonitrile] and `O=C(c1ccccc1)C1CCN(C(=O)c2nc3c(C(F)(F)F)cc(-c4ccoc4)cn3c2Cl)CC1` [Compound 194, (4-Benzoyl-piperidin-1-yl)-(3-chloro-6-furan-3-yl-8-trifluoromethyl-imidazo[1,2-a]pyridin-2-yl)-methanone] are within 1.5-fold of each other in EC50: 0.777 µM for the first, 0.889 µM for the second.

Going from `FC(F)(F)c1cc(-c2ccoc2)cn2cc(Cn3cnc(-c4ccccc4)c3)nc12` [Compound 228, 6-Furan-3-yl-2-(4-phenyl-imidazol-1-ylmethyl)-8-trifluoromethyl-imidazo[1,2-a]pyridine] to `O=C(Cc1cn2cc(-c3ccoc3)cc(C(F)(F)F)c2n1)N1CC=C(c2nccs2)C1` [Compound 186, 2-(6-Furan-3-yl-8-trifluoromethyl-imidazo[1,2-a]pyridin-2-yl)-1-(3-thiazol-2-yl-2,5-dihydro-pyrrol-1-yl)-ethanone], the EC50 falls from > 50 µM to 5.98 µM.

First: N#Cc1c(-c2ccoc2)cc(C(F)F)c2nc(C(=O)N3CC=C(c4nccs4)C3)c(Cl)n12 [Compound 169, 3-Chloro-8-difluoromethyl-6-furan-3-yl-2-(3-thiazol-2-yl-2,5-dihydro-pyrrole-1-carbonyl)-imidazo[1,2-a]pyridine-5-carbonitrile]
Second: O=C(c1nc2c(C(F)(F)F)cc(C3=CCNCC3)cn2c1Cl)N1CC=C(c2nccs2)C1 [Compound 218, [3-Chloro-6-(1,2,3,6-tetrahydro-pyridin-4-yl)-8-trifluoromethyl-imidazo[1,2-a]pyridin-2-yl]-(3-thiazol-2-yl-2,5-dihydro-pyrrol-1-yl)-methanone]
The EC50 of the first is 7.1-fold lower: 0.28 µM for the first, 2 µM for the second.

`CC(=O)NC(C(=O)NCc1cn2cc(-c3ccoc3)cc(C(F)(F)F)c2n1)C(C)O` (centres unmarked) [Compound 289, 2-Acetylamino-N-(6-furan-3-yl-8-trifluoromethyl-imidazo[1,2-a]pyridin-2-ylmethyl)-3-hydroxy-butyramide] and `CC(=O)NC(C(=O)NCc1cn2cc(-c3ccoc3)cc(C(F)(F)F)c2n1)C(C)C` (centres unmarked) [Compound 261, 2-Acetylamino-N-(6-furan-3-yl-8-trifluoromethyl-imidazo[1,2-a]pyridin-2-ylmethyl)-3-methyl-butyramide] cannot be ordered by EC50: > 50 µM for the first, > 50 µM for the second.

`CC(O)C(NC(=O)c1cn2cc(-c3ccoc3)cc(C(F)(F)F)c2n1)C(=O)O` (centres unmarked) [Compound 269, 2-[(6-Furan-3-yl-8-trifluoromethyl-imidazo[1,2-a]pyridine-2-carbonyl)-amino]-3-hydroxy-butyric acid] and `COC(=O)C(NC(=O)c1cn2cc(-c3ccoc3)cc(C(F)(F)F)c2n1)C(C)C` (centres unmarked) [Compound 256, 2-[(6-Furan-3-yl-8-trifluoromethyl-imidazo[1,2-a]pyridine-2-carbonyl)-amino]-3-methyl-butyric acid methyl ester] cannot be ordered by EC50: > 50 µM for the first, > 50 µM for the second.

Compared with `CC(C)CCOC1CCN(C(=O)c2nc3c(C(F)(F)F)cc(-c4ccoc4)cn3c2Cl)CC1` [Compound 158, (3-Chloro-6-furan-3-yl-8-trifluoromethyl-imidazo[1,2-a]pyridin-2-yl)-[4-(3-methyl-butoxy)-piperidin-1-yl]-methanone], `CC(C)CC(N)C(=O)NCc1cn2cc(-c3ccoc3)cc(C(F)(F)F)c2n1` (centres unmarked) [Compound 241, 2-Amino-4-methyl-pentanoic acid (6-furan-3-yl-8-trifluoromethyl-imidazo[1,2-a]pyridin-2-ylmethyl)-amide] is higher in EC50: 8.11 µM for the first, > 50 µM for the second. The first is the more potent here.

For `CC(=O)NC(CO)C(=O)NCc1cn2cc(-c3ccoc3)cc(C(F)(F)F)c2n1` (centres unmarked) [Compound 259, 2-Acetylamino-N-(6-furan-3-yl-8-trifluoromethyl-imidazo[1,2-a]pyridin-2-ylmethyl)-3-hydroxy-propionamide], the EC50 was > 50 µM.
